This is an account of results in patent US12128079B2, “Enteric aerobization therapy” (LPOXY THERAPEUTICS, INC., priority 2021, dated 2024).

“Also recorded” adds a separate entry of the source. Read-outs that look alike come from different tables or passages of the source.

For data set [1] the following is noted: up to the maximum bolus tested, 200 microliters every 6 hours (8 mL/kg per bolus; 32 mL/kg/day). Here is the method:
In a separate experiment using the above conditions the tolerance of bolus injection of 100% oxygen gas was tested.

Data set [2] concerns Clostridioides difficile ATCC 43255. The conditions noted are these: for clinical severity / clinical observations versus infection control group: FIGS. 7-10; for animals showing clinical signs of infection (recurrence) in the 2nd week after inoculation and treatment: days 8-14; for survival: mice followed 14 days after inoculation, treatment day 0 to day 4; for onset of action / cure rate: mouse CDI model; for cure rate: 14 days after inoculation.
Excerpt: Thirty C57BL/6 female mice (18-22 g) fitted with duodenal catheters externalized and fitted with access button ports were purchased from Charles River Laboratories and singly housed in a temperature and humidity-controlled room with a 12-hour light cycle. The mice were divided into 3 groups of 10. All procedures used in these experimental protocols were in compliance with the Animal Welfare Act, the Guide for the Care and Use of Laboratory Animals, and the Office of Laboratory Animal Welfare.
The mice were pretreated with an antibiotic cocktail in their drinking water for 8 consecutive days. This antibiotic cocktail was composed of 1% glucose, 500 mcg/mL kanamycin, 44 mcg/mL gentamicin, 1062.5 units per milliliter colistin, 269 mcg/mL metronidazole, 156 mcg/mL ciprofloxacin, 100 mcg/mL ampicillin, and 56 mcg/mL vancomycin. The antibiotic cocktail and drinking water were replaced every 2 to 3 days. Five days prior to infection the antibiotic water was removed and normal drinking water was provided to the animals. Three days prior to infection the animals received a single dose of clindamycin 10 mg per kilogram via oral administration in a volume of 10 mL per kilogram.
On study Day 0 mice were inoculated with the bacterial suspension of 5×10^5 CFU Clostridioides difficile ATCC 43255 via oral gavage. Eight hours after inoculation administration of vehicle, antibiotic control, and test article was initiated according to the following. The vehicle a.k.a. infection control group of 10 mice received 80 μL per hour 100% pure nitrogen gas via duodenal catheter. The infection control group of 10 mice received 50 mg/kg vancomycin via oral gavage once daily. […] Administration was continued from study day 0 to study day 4, a total of 5 days. The mice were followed for 14 days after inoculum recording daily weights and clinical observations. Animals that appeared severely moribund were euthanized. At the end of the study all animals were humanely euthanized.

Take `O=O` [EAT, oxygen]: in data set [1], the “adverse effects of bolus injection” value is “No adverse effects were observed”. Moreover, in data set [2], the “clinical severity / clinical observations versus infection control group” value is reported as “fewer sick animals compared to the infection control group; also recorded: mildly ill compared to the infection control group”; the “animals showing clinical signs of infection (recurrence) in the 2nd week after inoculation and treatment” value (“animals showing clinical signs” for short) is recorded as “no recurrent infections”; the survival is on record as 100%; the onset of action result was “slower onset of action”. Moreover, the cure rate in data set [2] was 100%. In data set [2] (listed as Enteric aerobization therapy), the “clinical severity / clinical observations versus infection control group” value is “reduces the severity of disease, accelerates recovery”. Besides, the “adverse effects due to gas infusion” value in data set [2] (infusion via duodenal catheter 3.2 mL/kg/hr, 76.8 mL/kg/day) is given as “no adverse effects”.
For the molecule `CN[C@H](CC(C)C)C(=O)N[C@H]1C(=O)N[C@@H](CC(N)=O)C(=O)N[C@H]2C(=O)N[C@H]3C(=O)N[C@H](C(=O)N[C@H](C(=O)O)c4cc(O)cc(O)c4-c4cc3ccc4O)[C@H](O)c3ccc(c(Cl)c3)Oc3cc2cc(c3O[C@@H]2O[C@H](CO)[C@@H](O)[C@H](O)[C@H]2O[C@H]2C[C@](C)(N)[C@H](O)[C@H](C)O2)Oc2ccc(cc2Cl)[C@H]1O` [vancomycin, reference compound], in data set [2], the “animals showing clinical signs” value was found to be 70%; the survival is recorded as 100%; the onset of action result is listed as “more rapid onset of action”; the cure rate is recorded as 30%. Besides, the “animals showing clinical signs” value in data set [2] (listed as antibiotic control group) is given as “Seventy”.
